Tested on: demyelinated cerebellar brain slices
Assay: Ex vivo (re)myelination in lysolecithin-demyelinated cerebellar brain slices
Format: cell-based, mouse
Details: 14-days treatment, vs vehicle
Procedure: FIG. 6: Inhibition of PDE4 by roflumilast induces (re)myelination in demyelinated brain slices. Mouse brain slices ([…]) were trimmed from the cerebellum of p10 C57bl6 pups. After 1 week in culture, brain slices were demyelinated using lysolecithin (16 h) and subsequently treated for 14 days with 5 μM roflumilast or vehicle (0.1% DMSO). Treatment was repeated every 2 days with a 60% medium replenishment. Brain slices were fixated using 4% paraformaldehyde and stained for MBP, neurofilament and counterstained with the nuclear DAPI dye. Three slices per animal were quantified for % myelinated axons (n:2/group).
FIG. 7: Inhibition of PDE4D by gebr32a induces (re)myelination in demyelinated brain slices. Mouse brain slices (370 μM) were trimmed from the cerebellum of p10 C57bl6 pups. […] Three slices per animal were quantified for % myelinated axons (n:2/group). […]
Organotypic cerebellar brain slices were fixed in 4% paraformaldehyde at room temperature for 40 minutes and incubated with primary antibodies diluted in blocking buffer (5% bovine serum albumin (BSA) and 0.05% Tween 20 in PBS) for 4 h at room temperature. […] Quantification was done using Fiji ImageJ by counting the percentage of myelinated axons crossing a predefined cross-sectional path.

| SMILES | MBP alignment with neurofilament (% myelinated axons) (0.5 μM) | MBP alignment with neurofilament (% myelinated axons) (5 μM) |
| --- | --- | --- |
| OC(CN1CCOCC1)Cn1ccc(-c2ccc(OC(F)F)c(OC3CCCC3)c2)n1 (centres unmarked) [Gebr32a] | four-fold increase |  |
| O=C(Nc1c(Cl)cncc1Cl)c1ccc(OC(F)F)c(OCC2CC2)c1 [roflumilast] |  | four-fold increase |

Source: patent publication US20210145838A1, “SELECTIVE PDE4D INHIBITORS AGAINST DEMYELINATING DISEASES” (Universiteit Hasselt, priority 2018, published 2021)
